Experimental data as given in ChEMBL document CHEMBL3400142, “Synthesis of nitro(benzo)thiazole acetamides and in vitro antiprotozoal effect against amitochondriate parasites Giardia intestinalis and Trichomonas vaginalis” (Bioorg Med Chem, 2015).

Assays:
[1] = tested on: Giardia duodenalis; experiment: Inhibition of Giardia intestinalis fructose 1,6-bisphosphate aldolase at 400 nM after 2 hrs by spectrophotometry
[2] = Cytotoxicity against African green monkey Vero cells after 48 hrs by MTT assay; assay type: cell-based; settings: chlorocebus sabaeus
[3] = tested on: Giardia intestinalis; experiment: Giardicidal activity against Giardia intestinalis IMSS:0696:1 compound treated for 48 hrs followed by incubation for 48 hrs in compound-free medium by cell counting; assay type: functional, organism-based; settings: Giardia duodenalis, IMSS:0696:1, 48 h
[4] = tested on: Trichomonas vaginalis; experiment: Trichomonicidal activity against Trichomonas vaginalis GT3 compound treated for 48 hrs followed by incubation for 48 hrs in compound-free medium by cell counting; assay type: functional, organism-based; settings: GT3, 48 h
[5] = tested on: Trichomonas vaginalis; experiment: Ratio of metronidazole IC50 to compound IC50 for Trichomonas vaginalis GT3 compound treated for 48 hrs followed by incubation for 48 hrs in compound-free medium by cell counting; assay type: functional
[6] = tested on: Trichomonas vaginalis; experiment: Ratio of nitazoxanide IC50 to compound IC50 for Trichomonas vaginalis GT3 compound treated for 48 hrs followed by incubation for 48 hrs in compound-free medium by cell counting; assay type: functional
[7] = tested on: Giardia intestinalis; experiment: Ratio of metronidazole IC50 to compound IC50 for Giardia intestinalis IMSS:0696:1 compound treated for 48 hrs followed by incubation for 48 hrs in compound-free medium by cell counting; assay type: functional, Giardia duodenalis
[8] = tested on: Giardia intestinalis; experiment: Ratio of nitazoxanide IC50 to compound IC50 for Giardia intestinalis IMSS:0696:1 compound treated for 48 hrs followed by incubation for 48 hrs in compound-free medium by cell counting; assay type: functional, Giardia duodenalis
[9] = tested on: Giardia duodenalis; experiment: Ratio of nitazoxanide IC50 to compound IC50 for Giardia intestinalis fructose 1,6-bisphosphate aldolase at 400 nM after 2 hrs by spectrophotometry
[10] = Selectivity index, ratio of CC50 for african green monkey Vero cells to IC50 for Giardia intestinalis IMSS:0696:1; assay type: functional

CC(=O)Nc1ncc([N+](=O)[O-])s1 [NITHIAMIDE]
inhibition [1]: -0%
CC50 at 48 h [2]: > 1000 µM

O=C(CN1CCCCC1)Nc1ncc([N+](=O)[O-])s1
IC50 ([3]; read-out: IC50): 0.219 µM
IC50 [4]: 2.04 µM
inhibition [1]: 5%
CC50 at 48 h [2]: > 1000 µM

Nc1ncc([N+](=O)[O-])s1
inhibition [1]: -0%

O=C(CN1CCCCC1)Nc1nc2ccc([N+](=O)[O-])cc2s1
IC50 ([3]; read-out: IC50): 2.31 µM
IC50 [4]: 3.43 µM
inhibition [1]: -0%
CC50 at 48 h [2]: > 1000 µM

O=C(Nc1ncc([N+](=O)[O-])s1)c1ccccc1O [TIZOXANIDE]
inhibition [1]: 25%
CC50 at 48 h [2]: 388 µM

Cc1ncc([N+](=O)[O-])n1CCO [METRONIDAZOLE]
CC50 at 48 h [2]: 367 µM

CC(=O)Oc1ccccc1C(=O)Nc1ncc([N+](=O)[O-])s1
inhibition [1]: 31%

O=C(CN1CCCC1)Nc1nc2ccc([N+](=O)[O-])cc2s1
IC50 ([3]; read-out: IC50): 0.298 µM
IC50 [4]: 0.221 µM
inhibition [1]: 10%
CC50 at 48 h [2]: > 1000 µM

Nc1nc2ccc([N+](=O)[O-])cc2s1
IC50 ([3]; read-out: IC50): 24.4 µM
IC50 [4]: 0.625 µM
Ratio IC50 [5]: 13
inhibition [1]: -0%
Ratio IC50 [6]: 3
CC50 at 48 h [2]: 607 µM

CCN(CC)CC(=O)Nc1nc2ccc([N+](=O)[O-])cc2s1
IC50 ([3]; read-out: IC50): 2.03 µM
IC50 [4]: 3.21 µM
inhibition [1]: -0%
CC50 at 48 h [2]: > 1000 µM

O=C(CN1CCCC1)Nc1ncc([N+](=O)[O-])s1
IC50 ([3]; read-out: IC50): 0.178 µM
IC50 [4]: 6.1 µM
Ratio IC50 [7]: 24
Ratio IC50 [8]: 5
inhibition [1]: 21%
CC50 at 48 h [2]: > 1000 µM

CCN(CC)CC(=O)Nc1ncc([N+](=O)[O-])s1
IC50 ([3]; read-out: IC50): 0.122 µM
IC50 ([3]; read-out: pIC50 (converted)): 0.123 µM
Ratio IC50 [9]: 2
IC50 [4]: 2.25 µM
Ratio IC50 [7]: 44
Ratio IC50 [8]: 10
inhibition [1]: 66%
Ratio CC50/IC50 [10]: 8196
CC50 at 48 h [2]: > 1000 µM

O=C(CN1CCOCC1)Nc1ncc([N+](=O)[O-])s1
IC50 ([3]; read-out: IC50): 0.151 µM
IC50 ([3]; read-out: pIC50 (converted)): 0.151 µM
Ratio IC50 [9]: 2
IC50 [4]: 0.305 µM
Ratio IC50 [7]: 35
Ratio IC50 [8]: 8
inhibition [1]: 54%
Ratio CC50/IC50 [10]: 6622
CC50 at 48 h [2]: > 1000 µM

O=C(CN1CCOCC1)Nc1nc2ccc([N+](=O)[O-])cc2s1
IC50 ([3]; read-out: IC50): 3.35 µM
IC50 [4]: 0.331 µM
inhibition [1]: 35%
CC50 at 48 h [2]: > 1000 µM
